Bounds are passed on as bounds.

This test concerns the target T1, Recombinant human HSD17B13 enzyme (Homo sapiens, UniProt Q7Z5P4).
T1 sequence (Q7Z5P4 20-300): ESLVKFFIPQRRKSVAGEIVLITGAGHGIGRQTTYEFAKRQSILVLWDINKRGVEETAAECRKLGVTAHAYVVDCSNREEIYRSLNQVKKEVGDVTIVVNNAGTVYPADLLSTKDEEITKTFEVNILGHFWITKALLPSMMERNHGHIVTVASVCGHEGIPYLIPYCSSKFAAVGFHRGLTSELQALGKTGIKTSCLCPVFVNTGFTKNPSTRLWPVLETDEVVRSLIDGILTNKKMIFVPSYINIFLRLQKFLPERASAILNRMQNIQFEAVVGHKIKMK
Nature of the test: HSD17b13 NAD(P)H-Glo biochemical assay. As to conditions: for IC50: 50 uM estradiol, 1 mM NAD+, NAD(P)H-Glo luminescence, read-out: HSD17β13 IC50; for inhibition at 10 µM: at 10 uM compound, read-out: HSD17β13 % inhibition at 10 uM. Put shortly:
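Recombinant human HSD17B13 in 20 mM Tris pH7.4 with 0.002% Tween-20 and 0.02% BSA was preincubated with inhibitor for 20 minutes at RT. The reaction ran 3 hours at 37° C with 50 uM estradiol and 1 mM NAD+ (final). NADH formed was detected by NAD(P)H-Glo luminescence after 1 hour at RT.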

In general, IC50 refers to the point on the concentration scale where inhibition reaches its midpoint. With `Cn1nc(-c2cc(C(F)(F)F)c(F)c(O)c2F)c2cnc(N(C3CCOCC3)C3CC3)cc21` [Compound 9.129, 3-(6-(Cyclopropyl(tetrahydro-2H-pyran-4-yl)amino)-1-methyl-1H-pyrazolo[4,3-c]pyridin-3-yl)-2,6-difluoro-5-(trifluoromethyl)phenol], the concentration for half-maximal inhibition (IC50) is < 100 nM.

For the compound `Cc1c(N(C)C2CCOCC2)ncc2c(-c3cc(C(F)(F)F)c(F)c(O)c3F)nn(C)c12` [Compound 9.130, 3-(1,7-Dimethyl-6-(methyl(tetrahydro-2H-pyran-4-yl)amino)-1H-pyrazolo[4,3-c]pyridin-3-yl)-2,6-difluoro-5-(trifluoromethyl)phenol], the IC50 lay within 100 to 1000 nM.

For `Cn1nc(-c2cc(C(F)(F)F)c(F)c(O)c2F)c2cnc(N(Cc3cccnc3)C3CCOCC3)cc21` [Compound 9.131, 2,6-Difluoro-3-(1-methyl-6-((pyridin-3-ylmethyl)(tetrahydro-2H-pyran-4-yl)amino)-1H-pyrazolo[4,3-c]pyridin-3-yl)-5-(trifluoromethyl)phenol], the IC50 was < 100 nM.

Take `Cn1nc(-c2cc(C(F)(F)F)c(F)c(O)c2F)c2cnc(N3CCOC4(CCCC4)C3)cc21` [Compound 9.132, 2,6-Difluoro-3-(1-methyl-6-(6-oxa-9-azaspiro[4.5]decan-9-yl)-1H-pyrazolo[4,3-c]pyridin-3-yl)-5-(trifluoromethyl)phenol]: the IC50 is < 100 nM.

With `Cn1nc(-c2cc(C(F)(F)F)c(F)c(O)c2F)c2cnc(N3CCOC(C4CCOCC4)C3)cc21` (stereo not shown) [Compound 9.133, 2,6-Difluoro-3-(1-methyl-6-(2-(tetrahydro-2H-pyran-4-yl)morpholino)-1H-pyrazolo[4,3-c]pyridin-3-yl)-5-(trifluoromethyl)phenol], the IC50 was < 100 nM.

As to `Cn1nc(-c2cc(C(F)(F)F)c(F)c(O)c2F)c2cnc(N3CCN(S(C)(=O)=O)C4(CCC4)C3)cc21` [Compound 9.134, 2,6-Difluoro-3-(1-methyl-6-(5-(methylsulfonyl)-5,8-diazaspiro[3.5]nonan-8-yl)-1H-pyrazolo[4,3-c]pyridin-3-yl)-5-(trifluoromethyl)phenol], the half-inhibitory concentration (IC50) was < 100 nM.

With `Cn1nc(-c2cc(C(F)(F)F)c(F)c(O)c2F)c2cnc(N3CCO[C@@H](c4ccccc4)C3)cc21` [Compound 9.135, (S)-2,6-Difluoro-3-(1-methyl-6-(2-phenylmorpholino)-1H-pyrazolo[4,3-c]pyridin-3-yl)-5-(trifluoromethyl)phenol], the IC50 is < 100 nM.

In the case of `CN(c1ncc2c(-c3cc(C(F)(F)F)c(F)c(O)c3F)nn(C)c2c1F)C1CCOCC1` [Compound 9.136, 2,6-Difluoro-3-(7-fluoro-1-methyl-6-(methyl(tetrahydro-2H-pyran-4-yl)amino)-1H-pyrazolo[4,3-c]pyridin-3-yl)-5-(trifluoromethyl)phenol], the IC50 was < 100 nM.

On to `Cc1cc(N(C)C2CCOCC2)cc2c1c(-c1cc(C(F)(F)F)c(F)c(O)c1F)nn2C` [Compound 9.137, 3-(1,4-Dimethyl-6-(methyl(tetrahydro-2H-pyran-4-yl)amino)-1H-indazol-3-yl)-2,6-difluoro-5-(trifluoromethyl)phenol], for which the half-maximal inhibitory concentration (IC50) was in the range of 100 to 1000 nM.

On to `Cn1nc(-c2cc(C(F)(F)F)c(F)c(O)c2F)c2nnc(N3CCOCC34CC4)cc21` [Compound 9.138, 2,6-Difluoro-3-(1-methyl-6-(7-oxa-4-azaspiro[2.5]octan-4-yl)-1H-pyrazolo[4,3-c]pyridazin-3-yl)-5-(trifluoromethyl)phenol], for which the IC50 is < 100 nM.

The term inhibition denotes the percentage by which the read-out fell short of the control. `Cn1nc(-c2cc(C(F)(F)F)c(F)c(O)c2F)c2ccc(NC3COC3)nc21` [Compound 9.139, 2,6-Difluoro-3-(1-methyl-6-(oxetan-3-ylamino)-1H-pyrazolo[3,4-b]pyridin-3-yl)-5-(trifluoromethyl)phenol]: the inhibition at 10 µM turned out to be 25%.

As to `Cn1nc(-c2cc(C(F)(F)F)c(F)c(O)c2F)c2cnc(N3CCCC34COC4)cc21` [Compound 9.140, 2,6-Difluoro-3-(1-methyl-6-(2-oxa-5-azaspiro[3.4]octan-5-yl)-1H-pyrazolo[4,3-c]pyridin-3-yl)-5-(trifluoromethyl)phenol], the inhibition at 10 µM is 35%.

With `CN(c1cc2c(nn1)c(-c1cc(C(F)(F)F)c(F)c(O)c1O)nn2C)C1CCOCC1` [Compound 9.141, 3-Fluoro-6-(1-methyl-6-(methyl(tetrahydro-2H-pyran-4-yl)amino)-1H-pyrazolo[4,3-c]pyridazin-3-yl)-4-(trifluoromethyl)benzene-1,2-diol], the inhibition at 10 µM was 20%.

Turning to `CS(=O)(=O)N1CCN(c2ncc3c(-c4cc(O)c(F)c(C(F)(F)F)c4)n[nH]c3n2)CC1` [Compound 10, 2-Fluoro-5-(6-(4-(methylsulfonyl)piperazin-1-yl)-1H-pyrazolo[3,4-d]pyrimidin-3-yl)-3-(trifluoromethyl)phenol], the half-maximal inhibitory concentration (IC50) was 100 to 1000 nM.

Turning to `Oc1cc(-c2n[nH]c3nc(N4CC5(CCOCC5)C4)ncc23)cc(C(F)(F)F)c1F` [Compound 10.01, 5-(6-(7-Oxa-2-azaspiro[3.5]nonan-2-yl)-1H-pyrazolo[3,4-d]pyrimidin-3-yl)-2-fluoro-3-(trifluoromethyl)phenol], the IC50 fell in the range of 100 to 1000 nM.

With `CC1(C#N)CN(c2ncc3c(-c4cc(O)c(F)c(C(F)(F)F)c4)n[nH]c3n2)C1` [Compound 10.02, 1-(3-(4-Fluoro-3-hydroxy-5-(trifluoromethyl)phenyl)-1H-pyrazolo[3,4-d]pyrimidin-6-yl)-3-methylazetidine-3-carbonitrile], the IC50 was < 100 nM.

Take `CS(=O)(=O)N1CCN(c2ccc3c(-c4cc(O)c(F)c(C(F)(F)F)c4)n[nH]c3n2)CC1` [Compound 10.03, 2-Fluoro-5-(6-(4-(methylsulfonyl)piperazin-1-yl)-1H-pyrazolo[3,4-b]pyridin-3-yl)-3-(trifluoromethyl)phenol]: the half-maximal inhibitory concentration (IC50) fell in the range of 100 to 1000 nM.

Regarding `CS(=O)(=O)N1CCN(c2cnc3c(-c4cc(O)c(F)c(C(F)(F)F)c4)n[nH]c3n2)CC1` [Compound 10.04, 2-Fluoro-5-(6-(4-(methylsulfonyl)piperazin-1-yl)-1H-pyrazolo[3,4-b]pyrazin-3-yl)-3-(trifluoromethyl)phenol], the IC50 was in the range of 100 to 1000 nM.

Turning to `CS(=O)(=O)N1CCN(c2cnc3c(-c4cc(O)c(F)c(C(F)(F)F)c4)nn(C4CCCCO4)c3n2)CC1` (stereo not shown) [Compound 10.05, 2-Fluoro-5-(6-(4-(methylsulfonyl)piperazin-1-yl)-1-(tetrahydro-2H-pyran-2-yl)-1H-pyrazolo[3,4-b]pyrazin-3-yl)-3-(trifluoromethyl)phenol], the IC50 was < 100 nM.

Turning to `Oc1cc(-c2n[nH]c3nc(N4CC5(CCOCC5)C4)cnc23)cc(C(F)(F)F)c1F` [Compound 10.06, 5-(6-(7-Oxa-2-azaspiro[3.5]nonan-2-yl)-1H-pyrazolo[3,4-b]pyrazin-3-yl)-2-fluoro-3-(trifluoromethyl)phenol], the IC50 fell in the range of 100 to 1000 nM.

Take `CS(=O)(=O)N1CCN(c2ccc3c(-c4cc(C(F)(F)F)cc(O)c4F)n[nH]c3c2)CC1` [Compound 11, 2-Fluoro-3-(6-(4-(methylsulfonyl)piperazin-1-yl)-1H-indazol-3-yl)-5-(trifluoromethyl)phenol]: the half-maximal inhibitory concentration (IC50) was 1000 to 30000 nM.

`CS(=O)(=O)N1CCN(c2ccc3c(-c4ccc(F)c(O)c4F)n[nH]c3c2)CC1` [Compound 11.01, 2,6-Difluoro-3-(6-(4-(methylsulfonyl)piperazin-1-yl)-1H-indazol-3-yl)phenol]: the inhibition at 30 µM (at 30 uM compound, read-out: HSD17β13 % inhibition at 30 uM) came to 41%.

The values above are taken from patent US20240083861A1, “HSD17B13 INHIBITORS AND USES THEREOF” (FL2022-001, Inc., priority 2020, published 2024).
